Experimental data taken from publication PMC8533089, “Characteristics of Neurokinin-3 Receptor and Its Binding Sites by Mutational Analysis” (Biology, 2021).
Like-named read-outs stand apart in the source and are kept apart here.

Experiments:
tiTac3Ra = tiTac3Ra (Oreochromis niloticus, UniProt A0A075QPN8); experiment: CRE-Luc antagonist assay, wild-type receptor, COS-7; assay type: cell-based, tilapia (Oreochromis niloticus); conditions: for IC50: antagonist 0.001–1000 μM added 10 min before peptide
Method: In order to study the signaling pathways of the mutant tiTac3Ra, the entire coding regions of tiTac3Ra (GenBank accession no. KF471674), and both of the mutant receptors were inserted into pcDNA3.1 (Invitrogen, Massachusetts, United States). We used a sensitive luciferase (LUC) reporter gene assay. […] Transient transfection, cell procedures and stimulation protocols followed the procedures previously described. Briefly, 3 μg of each construct, together with 3 μg of a luciferase reporter plasmid were transiently transfected into COS-7 cells (American Type Culture Collection, Manassas, VA, USA). Forty-eight hours after transfection, cells transfected with Tac3Ra plasmid fused with GFP were applied with an Hoechst dye (Invitrogen, Massachusetts, United States; diluted 1:1000) in order to mark nuclei in the culture for transfection analysis.
Non-peptide molecules, SB-222200 (Sigma, Merck, Darmstadt, Germany) and Osanetant (Axon Medchem, Reston, VA, USA), known to antagonize mammalian NK3R [49] were studied for their ability to antagonize tiTac3Ra, which was activated with a fixed dose of the native ligands (10 nM tiNKB or tiNKF), combined with increasing doses of the antagonists (0.001–1000 μM). The antagonists were added 10 min prior to the addition of the peptides. IC50 values were calculated from concentration response curves by means of computerized nonlinear curve-fitting with Prism version 9 software (GraphPad, San Diego, CA, USA). All experiments were repeated at least 3 times using cells from independent transfections, each performed in triplicate.
NKB antagonists, SB-222200 (Figure 7A) and Osanetant (Figure 7B) were added in increasing concentrations (0.001–1000 μM) to transfected COS-7 that expressed tiTac3Ra. Ten minutes after the induction of the antagonists, the ligand, tiNKB or tiNKF (10 nM) was added to the media.

FSH plasma levels = experiment: In vivo effect of NKB antagonists on FSH plasma levels (ELISA); set-up: species or system adult male tilapia (Oreochromis niloticus); conditions: antagonist 100 µg/kg BW IP, sGnRHa 10 µg/kg BW after 0.5 h; n = 10
Method: (§1) The levels of FSH, LH and GH in the plasma were measured by specific competitive enzyme-linked immunosorbent assay (ELISA), developed for tilapia, based on recombinant gonadotropins or GH that were created by using the yeast Pichia pastoris. For the ELISAs, we used primary antibody antisera against GH [51], FSHβ [52], or against rtLHβ [53], and rtFSHβα [52], rtLHβ [53] or tiGH for the standard curves. Sensitivity for the plasma measurements were 15.84 pg/mL for LH, 0.24 pg/mL for FSH and 30.0 pg/mL for GH. The inter-assay coefficient of variation (CV) was 14.8, 12.5, and 13.0%, while intra-assay CV was 7.2, 8.0, and 8.0% for LH, FSH and GH, respectively.
Adult male tilapia (BW 89.29 ± 32.93 g; gonado-somatic index (GSI) 0.24% ± 0.40%) were injected IP (intraperitoneal) with NKB antagonists, SB-222200 or Osanetant (100 µg/kg BW), and after 0.5 h, a second injection of sGnRHa (10 µg/kg BW) was added. Control groups were injected with sGnRHa ([DAla^6, Pro^9-Net]-mammalian GnRH; Bachem, Budendorf, Switzerland) 10 µg/kg BW) as a positive control. The fish were bled from the caudal blood vessels into heparinized syringes 0, 0.5, 2, 6 and 24 h after injection. This time course is according to standard protocols used previously to test the effect of GnRH on circulating levels of LH, FSH, and GH in tilapia. […]

[1] = test system: plasma GH and gonadotropins; experiment: 14-day in vivo experiment: plasma GH and gonadotropins (ELISA); set-up: species or system adult male tilapia (Oreochromis niloticus); conditions: 500 µg/kg BW IP every 48 h, 14 days, versus control
Method: as §1
(§2) Adult male tilapia (BW 87.29 ± 26.1 g; gonado-somatic index (GSI 0.21% ± 0.36%) were IP injected with SB-222200 (500 µg/kg BW in 25% DMSO) and saline with 25% DMSO as a control every 48 h during a 14-day period. Blood was sampled every 48 h. Milt volume was collected from 6 fish from each group 7 and 14 days after the first injection, generally according to [55].

[2] = test system: testicular cell composition; experiment: 14-day in vivo experiment: testicular histology and cell composition; set-up: species or system adult male tilapia (Oreochromis niloticus)
Method: as §2
Testes were sampled for histology at 14 days, and testicular cell composition was analyzed. Testes were fixed for 24 h, after which a portion was removed (~5 mm in length) from the center of the larger right testicular lobe for histological processing. Samples were rinsed in distilled water, dehydrated in an alcohol series, cleared in xylene, embedded in paraffin, serially sectioned at 4 μm in the transverse plane, and stained with hematoxylin and eosin using standard histological techniques. Photomicrographs were then taken (4× objective) of 3 randomly chosen sections from each individual for analysis of testicular cell composition. Randomly generated points (n = 50) were overlaid on each photograph (CPCe software), and the cell type underneath each crosshair point was identified. A minimum of 50 points was necessary to adequately determine the percentage of cell types. Cell types were identified based on previous descriptions in this and other related teleost species reviewed in [57], and the following cells were quantified: spermatogonia, spermatids, and spermatozoa (mature sperm). Each cell type was then expressed as a percentage of the total, and averaged across the 3 sections to obtain a mean for each individual.

Tac3R = test system: Tac3R; set-up: method as in PMID 10992004; conditions: cited from earlier work
From the text: (§3) The effect of NKB/NKF peptides on gonadotropin secretion in fish is already well established. The first indication that NKB is widely expressed in fish species and has a stimulatory reproductive effect was shown in zebrafish, goldfish, and tilapia. […] Osetanant re ...

LH secretion = conditions: OVX ewes, micro-implants in the ARC; cited from earlier work
From the text: as §3

Sequence of tiTac3Ra (A0A075QPN8 entry or part of it): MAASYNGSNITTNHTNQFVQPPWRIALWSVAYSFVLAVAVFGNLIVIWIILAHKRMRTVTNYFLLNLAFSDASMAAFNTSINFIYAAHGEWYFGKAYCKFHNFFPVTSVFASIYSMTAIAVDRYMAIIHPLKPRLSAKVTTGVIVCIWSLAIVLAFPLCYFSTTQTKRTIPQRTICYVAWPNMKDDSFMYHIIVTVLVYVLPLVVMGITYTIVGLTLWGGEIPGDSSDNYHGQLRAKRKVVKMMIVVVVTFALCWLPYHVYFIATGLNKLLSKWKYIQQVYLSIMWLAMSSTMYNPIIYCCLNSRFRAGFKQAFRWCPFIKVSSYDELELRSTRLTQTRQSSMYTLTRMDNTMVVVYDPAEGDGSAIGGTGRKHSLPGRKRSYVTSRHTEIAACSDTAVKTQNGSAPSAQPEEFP

`CC[C@H](NC(=O)c1c(C)c(-c2ccccc2)nc2ccccc12)c1ccccc1` [SB-222200] gave an IC50 (tiTac3Ra; 10 nM tiNKB, COS-7, CRE-Luc, read-out: IC50 versus tiNKB) of 84.1 µM, an IC50 (tiTac3Ra; 10 nM tiNKF, COS-7, CRE-Luc, read-out: IC50 versus tiNKF) of 37.1 µM and an Emax (tiTac3Ra; COS-7, CRE-Luc, 10 nM tiNKB or tiNKF, read-out: luciferase activity reduced to % of maximal response) of 50%. For the same molecule, the “maximum response rate compared with Osanetant” value (tiTac3Ra; Figure 7C,D) was “higher maximum response rate than Osanetant”, the “inhibitory effect on Tac3Ra activation” value (tiTac3Ra; in words) was “strong inhibitory effect” and the “reduction of receptor activity (in words)” value (tiTac3Ra; restated in Discussion) was “reduced the receptor activity by half”. The “FSH levels, 2 h post injection, combination with sGnRHa” value (FSH plasma levels) was “increased FSH levels”, the “Plasma GH and gonadotropins” value [1] was “did not change significantly” and the number of spermatozoa ([2]; 500 µg/kg BW IP every 48 h, day 14) was “significantly reduced the number of spermatozoa”. The “other cells, % of cells” value ([2]; 500 µg/kg BW IP every 48 h, day 14, Figure 9E, *) was 48.38%, the “spermatid, % of cells” value ([2]; 500 µg/kg BW IP every 48 h, day 14, control 23.2%, significant) was 10% and the “spermatozoa, % of cells” value ([2]; 500 µg/kg BW IP every 48 h, day 14, control 23.78%, significant) was 6.63%. The “spermatogonia, % of cells” value ([2]; 500 µg/kg BW IP every 48 h, day 14, control 32.87%) was 35%, the “spermatogonia, count” value ([2]; day 14, Figure 9E) was 280 and the “other cells, count” value ([2]; day 14, Figure 9E, *) was 387. For the same molecule, the “spermatid, count” value ([2]; day 14, Figure 9E, *) was 80, the “spermatozoa, count” value ([2]; day 14, Figure 9E, *) was 53 and the “inhibition of NKB binding to the membranes of CHO cells” value (Tac3R; CHO cells stably expressing the Tac3R receptor) was “inhibited NKB binding to the membranes of CHO cells”. For the same molecule, the “antagonism of NKB-induced Ca^2+ mobilization” value (Tac3R; HEK 293 cells) was “antagonized NKB-induced Ca^2+ mobilization in HEK 293 cells” and the LH secretion (LH secretion) was “disrupted LH secretion”.
